Laboratory results reported in patent US20260306640A1, “TECHNOLOGIES TARGETING CELL STATES” (Auron Therapeutics, Inc., priority 2023, published 2026).

What was measured:
KAT2B = KAT2B (Homo sapiens, UniProt Q92831); test: KAT2B degradation, Western Blot (Jess), NCI-H1048 cells; format: cell-based; design: degrader, Western blot (Jess); conditions: NCI-H1048 cells, KAT2B, 24 h, Western Blot, vs DMSO; read-out: KAT2B NCI-H1048 DC50
Description: (§1) MOLM-13 cells or NCI-H1048 cells were used for Western Blot analysis of KAT2A degradation. KAT2B degradation can be measured in a similar manner with NCI-H1048 cells.
(§2) H1048 cells were maintained at 37° C. in 5% CO2 and 90% humidity in HITES medium with 5% fetal bovine serum (FBS). HITES medium was […] with the following additions: 0.005 mg/ml Insulin, 0.01 mg/ml Transferrin, 30 nM Sodium selenite, 10 nM Hydrocortisone, 10 nM beta-estradiol, and extra 2 mM L-glutamine (for final concentration of 4.5 mM). Cells were plated in full media at 1 million cells/2 mL in a 6-well tissue culture treated plate with or without compounds for 24 h at 37° C. in 5% CO2.
(§3) MOLM-13 cells or NCI-H1048 cells were washed with PBS, then lysed with RIPA buffer containing 1×protease and phosphatase inhibitors (SantaCruz Biotechnologies Cat #sc-24948A). Protein was isolated by centrifugation at 12,000×g for 10 minutes at 4° C. and supernatant was collected. Protein was quantified via Bradford assay. Samples were diluted to 4 μg lysate in 16 μL RIPA buffer and then 4 μL of Jess Sample Buffer. Samples were heated at 95° C. for 5 minutes. Samples were loaded onto 12-230 kDa Jess™ Separation Module, 8×25 capillary cartridges (SM-W004, Biotechne). Antibodies loaded were: Primary antibody for KAT2A (GCN5L2 (C26A10) Rabbit mAb (3305, CST)) and for KAT2B (PCAF (C14G9)) Rabbit mAb (3378, CST) at 1:1000 and Anti-Rabbit Detection Module for Jess™ (Cat No #DM-001, Biotechne). Signal was detected by chemiluminescence.
(§4) DC50 values were determined from percent reduction of protein as compared to the DMSO control.

KAT2A = KAT2A (Homo sapiens, UniProt Q92830); test: KAT2A degradation, Western Blot (Jess), NCI-H1048 cells; format: cell-based; design: degrader, Western blot (Jess); conditions: NCI-H1048 cells, KAT2A, 24 h, Western Blot, vs DMSO; read-out: KAT2A NCI-H1048 DC50
Chain of KAT2A (Q92830 whole entry): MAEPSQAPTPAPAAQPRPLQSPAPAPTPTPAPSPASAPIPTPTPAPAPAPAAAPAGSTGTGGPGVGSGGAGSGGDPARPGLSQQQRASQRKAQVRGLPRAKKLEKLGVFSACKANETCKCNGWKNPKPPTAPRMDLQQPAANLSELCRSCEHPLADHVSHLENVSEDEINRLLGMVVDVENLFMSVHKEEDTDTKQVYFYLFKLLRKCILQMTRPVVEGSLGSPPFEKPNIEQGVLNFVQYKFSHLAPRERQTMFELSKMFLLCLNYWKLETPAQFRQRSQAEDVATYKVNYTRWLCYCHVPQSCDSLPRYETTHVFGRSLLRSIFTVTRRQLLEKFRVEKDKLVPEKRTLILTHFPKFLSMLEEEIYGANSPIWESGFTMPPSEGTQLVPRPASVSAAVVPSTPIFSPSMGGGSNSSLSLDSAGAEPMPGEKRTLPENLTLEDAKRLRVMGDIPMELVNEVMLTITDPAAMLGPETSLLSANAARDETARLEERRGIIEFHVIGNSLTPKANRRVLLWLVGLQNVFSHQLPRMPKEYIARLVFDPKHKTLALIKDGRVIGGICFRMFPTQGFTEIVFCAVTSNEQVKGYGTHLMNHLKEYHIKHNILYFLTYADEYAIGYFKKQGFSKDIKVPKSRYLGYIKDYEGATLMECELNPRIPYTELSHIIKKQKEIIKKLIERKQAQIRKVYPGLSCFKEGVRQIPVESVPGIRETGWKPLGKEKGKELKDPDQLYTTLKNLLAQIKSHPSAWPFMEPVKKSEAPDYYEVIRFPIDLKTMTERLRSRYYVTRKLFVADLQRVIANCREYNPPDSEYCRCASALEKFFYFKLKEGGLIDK
Description: as §1, §2, §3, §4

Chain of KAT2B (Q92831 whole entry): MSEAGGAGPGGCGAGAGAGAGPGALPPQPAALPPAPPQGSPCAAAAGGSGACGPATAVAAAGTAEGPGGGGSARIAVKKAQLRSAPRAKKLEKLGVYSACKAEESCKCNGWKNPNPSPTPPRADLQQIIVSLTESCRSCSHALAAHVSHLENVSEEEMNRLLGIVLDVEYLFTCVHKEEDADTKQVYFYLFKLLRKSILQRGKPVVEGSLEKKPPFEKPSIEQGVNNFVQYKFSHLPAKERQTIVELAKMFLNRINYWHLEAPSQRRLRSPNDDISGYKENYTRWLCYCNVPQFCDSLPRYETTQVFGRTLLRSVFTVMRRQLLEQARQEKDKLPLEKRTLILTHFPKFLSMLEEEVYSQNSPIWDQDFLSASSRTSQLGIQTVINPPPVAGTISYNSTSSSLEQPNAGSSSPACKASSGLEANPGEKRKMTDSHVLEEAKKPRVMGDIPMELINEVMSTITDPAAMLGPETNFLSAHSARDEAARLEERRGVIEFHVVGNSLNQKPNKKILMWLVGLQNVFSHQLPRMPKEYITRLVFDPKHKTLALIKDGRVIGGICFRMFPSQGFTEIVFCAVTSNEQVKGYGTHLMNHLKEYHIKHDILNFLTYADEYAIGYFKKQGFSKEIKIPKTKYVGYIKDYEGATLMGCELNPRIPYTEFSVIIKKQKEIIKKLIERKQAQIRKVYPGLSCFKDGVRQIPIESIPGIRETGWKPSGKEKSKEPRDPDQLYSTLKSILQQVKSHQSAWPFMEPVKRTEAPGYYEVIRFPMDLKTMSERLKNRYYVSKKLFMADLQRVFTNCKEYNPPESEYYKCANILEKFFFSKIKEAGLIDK

| Structure (SMILES) | DC50 (KAT2B) | DC50 (KAT2A) |
| --- | --- | --- |
| COc1cc(C2CCC(=O)NC2=O)ccc1N1CCC2(CCN(C(=O)c3ccc([C@H]4C[C@@H](Nc5cnn(C)c(=O)c5Cl)CN(C)C4)cc3)CC2)CC1 (stereo partly shown) [Compound 258] | > 30 nM | < 1 nM |
| CN1C[C@H](Nc2cnn(C)c(=O)c2Cl)C[C@H](c2ccc(C(=O)N3CCC4(CC3)CCN(c3ccc(CN5CCC(=O)NC5=O)cc3)CC4)cc2)C1 [Compound 268] | > 30 nM | < 1 nM |
| Cc1c(N[C@@H]2C[C@H](c3ccc(C(=O)N4CCC5(CC4)CCN(c4ccc(C6CCC(=O)NC6=O)cc4OC(F)(F)F)CC5)cc3)CN(C)C2)cnn(C)c1=O (stereo partly shown) [Compound 269] | > 30 nM | 1 to 30 nM |
| CN1C[C@H](Nc2cnn(C)c(=O)c2Cl)C[C@H](c2ccc(C(=O)N3CCC4(CC3)CCN(c3cc(C(F)(F)F)c(C5CCC(=O)NC5=O)cn3)CC4)cc2)C1 (stereo partly shown) [Compound 270] | > 30 nM | > 30 nM |
| Cc1c(N[C@@H]2C[C@H](c3ccc(C(=O)N4CCC5(CC4)CCN(c4cnc(C6CCC(=O)NC6=O)c(F)c4)CC5)cc3)CN(C)C2)cnn(C)c1=O (stereo partly shown) [Compound 272] | > 30 nM | < 1 nM |
| CN1C[C@H](Nc2cnn(C)c(=O)c2Cl)C[C@H](c2ccc(C(=O)N3CCC4(CC3)CCN(c3ccc(C5CCC(=O)NC5=O)c(OC(F)(F)F)c3)CC4)cc2)C1 (stereo partly shown) [Compound 277] | > 30 nM | > 30 nM |
| COc1cc(N2CCC3(CCN(C(=O)c4ccc([C@H]5C[C@@H](Nc6cnn(C)c(=O)c6Br)CN(C)C5)cc4)CC3)CC2)c(F)cc1C1CCC(=O)NC1=O (stereo partly shown) [Compound 278] | > 30 nM | 1 to 30 nM |
| COc1cc(N2CCC3(CCN(C(=O)c4ccc([C@H]5C[C@@H](Nc6cnn(C)c(=O)c6Cl)CN(C)C5)cc4)CC3)CC2)c(F)cc1C1CCC(=O)NC1=O (stereo partly shown) [Compound 279] | > 30 nM | < 1 nM |
| COc1cc(N2CCC3(CCN(C(=O)c4ccc([C@H]5C[C@@H](Nc6cnn(C)c(=O)c6Br)CN(C)C5)cc4)CC3)CC2)c(C)cc1C1CCC(=O)NC1=O (stereo partly shown) [Compound 284] | > 30 nM | < 1 nM |
| COc1cc(N2CCC3(CCN(C(=O)c4ccc([C@H]5C[C@@H](Nc6cnn(C)c(=O)c6Cl)CN(C)C5)cc4)CC3)CC2)c(C)cc1C1CCC(=O)NC1=O (stereo partly shown) [Compound 285] | > 30 nM | < 1 nM |
| COc1cc(N2CCC3(CCN(C(=O)c4ccc([C@H]5C[C@@H](Nc6cnn(C)c(=O)c6Cl)CN(C)C5)cc4)CC3)CC2)cc(C)c1C1CCC(=O)NC1=O (stereo partly shown) [Compound 286] | 1 to 30 nM | < 1 nM |
| COc1cc(N2CCC3(CCN(C(=O)c4ccc([C@H]5C[C@@H](Nc6cnn(C)c(=O)c6Br)CN(C)C5)cc4)CC3)CC2)cc(C)c1C1CCC(=O)NC1=O (stereo partly shown) [Compound 287] | 1 to 30 nM | < 1 nM |
| CN1C[C@H](Nc2cnn(C)c(=O)c2Cl)C[C@H](c2ccc(C(=O)N3CCC4(CC3)CN(c3ccc(C5CCC(=O)NC5=O)c(F)c3)C4)cc2)C1 (stereo partly shown) [Compound 289] | > 30 nM | < 1 nM |
| Cc1cc(N2CC3(CCN(C(=O)c4ccc([C@H]5C[C@@H](Nc6cnn(C)c(=O)c6Cl)CN(C)C5)cc4)CC3)C2)ccc1C1CCC(=O)NC1=O (stereo partly shown) [Compound 290] | > 30 nM | 1 to 30 nM |
| Cc1cc(N2CC3(CCN(C(=O)c4ccc([C@H]5C[C@@H](Nc6cnn(C)c(=O)c6Br)CN(C)C5)cc4)CC3)C2)ccc1C1CCC(=O)NC1=O (stereo partly shown) [Compound 291] | 1 to 30 nM | < 1 nM |
| Cc1cc(N2CCC3(CC2)CN(C(=O)c2ccc([C@H]4C[C@@H](Nc5cnn(C)c(=O)c5Br)CN(C)C4)cc2)C3)ccc1C1CCC(=O)NC1=O (stereo partly shown) [Compound 292] | 1 to 30 nM | < 1 nM |
| CN1C[C@H](Nc2cnn(C)c(=O)c2Cl)C[C@H](c2ccc(C(=O)N3CCC4(CC3)CCN(c3ccc5c(C6CCC(=O)NC6=O)nccc5c3)CC4)cc2)C1 (stereo partly shown) [Compound 293] | 1 to 30 nM | < 1 nM |

Results, then the molecule that gave them:

| DC50 (KAT2B) | DC50 (KAT2A) | Structure (SMILES) |
| --- | --- | --- |
| 1 to 30 nM | < 1 nM | Cc1c(C2CCC(=O)NC2=O)ccc(N2CCC3(CCN(C(=O)c4ccc([C@H]5C[C@@H](Nc6cnn(C)c(=O)c6Br)CN(C)C5)cc4)CC3)CC2)c1F (stereo partly shown) [Compound 254] |
| < 1 nM | < 1 nM | Cc1cc(N2CCC3(CCN(C(=O)c4ccc([C@H]5C[C@@H](Nc6cnn(C)c(=O)c6C)CN(C)C5)cc4)CC3)CC2)cc(F)c1C1CCC(=O)NC1=O (stereo partly shown) [Compound 255] |
| 1 to 30 nM | < 1 nM | Cc1c(C2CCC(=O)NC2=O)ccc(N2CCC3(CCN(C(=O)c4ccc([C@H]5C[C@@H](Nc6cnn(C)c(=O)c6C)CN(C)C5)cc4)CC3)CC2)c1F (stereo partly shown) [Compound 256] |
| 1 to 30 nM | < 1 nM | COc1cc(C2CCC(=O)NC2=O)ccc1N1CCC2(CCN(C(=O)c3ccc([C@H]4C[C@@H](Nc5cnn(C)c(=O)c5C)CN(C)C4)cc3)CC2)CC1 (stereo partly shown) [Compound 257] |
| 1 to 30 nM | < 1 nM | CN1C[C@H](Nc2cnn(C)c(=O)c2Br)C[C@H](c2ccc(C(=O)N3CCC4(CC3)CCN(c3ccc(C5CCC(=O)NC5=O)cc3OC(F)(F)F)CC4)cc2)C1 (stereo partly shown) [Compound 259] |
| 1 to 30 nM | < 1 nM | CN1C[C@H](Nc2cnn(C)c(=O)c2Cl)C[C@H](c2ccc(C(=O)N3CCC4(CC3)CCN(c3ccc(C5CCC(=O)NC5=O)cc3OC(F)(F)F)CC4)cc2)C1 (stereo partly shown) [Compound 260] |
| < 1 nM | < 1 nM | CN1C[C@H](Nc2cnn(C)c(=O)c2Br)C[C@H](c2ccc(C(=O)N3CCC4(CC3)CCN(c3ccc(C5CCC(=O)NC5=O)cn3)CC4)cc2)C1 (stereo partly shown) [Compound 261] |
| 1 to 30 nM | < 1 nM | CN1C[C@H](Nc2cnn(C)c(=O)c2Cl)C[C@H](c2ccc(C(=O)N3CCC4(CC3)CCN(c3ccn(C5CCC(=O)NC5=O)c(=O)c3)CC4)cc2)C1 (stereo partly shown) [Compound 262] |
| < 1 nM | < 1 nM | COc1cc(N2CCC3(CCN(C(=O)c4ccc([C@H]5C[C@@H](Nc6cnn(C)c(=O)c6Br)CN(C)C5)cc4)CC3)CC2)ccc1C1CCC(=O)NC1=O (stereo partly shown) [Compound 263] |
| < 1 nM | < 1 nM | CN1C[C@H](Nc2cnn(C)c(=O)c2Cl)C[C@H](c2ccc(C(=O)N3CCC4(CC3)CCN(c3ncc(C5CCC(=O)NC5=O)cn3)CC4)cc2)C1 (stereo partly shown) [Compound 264] |
| < 1 nM | < 1 nM | Cc1cc(N2CCC3(CCN(C(=O)c4ccc([C@H]5C[C@@H](Nc6cnn(C)c(=O)c6Br)CN(C)C5)cc4)CC3)CC2)ccc1C1CCC(=O)NC1=O (stereo partly shown) [Compound 265] |
| < 1 nM | < 1 nM | Cc1cc(N2CCC3(CCN(C(=O)c4ccc([C@H]5C[C@@H](Nc6cnn(C)c(=O)c6Cl)CN(C)C5)cc4)CC3)CC2)ncc1C1CCC(=O)NC1=O (stereo partly shown) [Compound 266] |
| < 1 nM | < 1 nM | Cc1cc(C2CCC(=O)NC2=O)cnc1N1CCC2(CCN(C(=O)c3ccc([C@H]4C[C@@H](Nc5cnn(C)c(=O)c5Cl)CN(C)C4)cc3)CC2)CC1 (stereo partly shown) [Compound 267] |
| < 1 nM | < 1 nM | CN1C[C@H](Nc2cnn(C)c(=O)c2Br)C[C@H](c2ccc(C(=O)N3CCC4(CC3)CCN(c3ncc(C5CCC(=O)NC5=O)cn3)CC4)cc2)C1 (stereo partly shown) [Compound 271] |
| < 1 nM | < 1 nM | Cc1cc(N2CCC3(CCN(C(=O)c4ccc([C@H]5C[C@@H](Nc6cnn(C)c(=O)c6Br)CN(C)C5)cc4)CC3)CC2)ncc1C1CCC(=O)NC1=O (stereo partly shown) [Compound 273] |
| < 1 nM | < 1 nM | Cc1cc(C2CCC(=O)NC2=O)cnc1N1CCC2(CCN(C(=O)c3ccc([C@H]4C[C@@H](Nc5cnn(C)c(=O)c5Br)CN(C)C4)cc3)CC2)CC1 (stereo partly shown) [Compound 274] |
| 1 to 30 nM | 1 to 30 nM | Cc1cc(C2CCC(=O)NC2=O)c(F)cc1N1CCC2(CCN(C(=O)c3ccc([C@H]4C[C@@H](Nc5cnn(C)c(=O)c5Br)CN(C)C4)cc3)CC2)CC1 (stereo partly shown) [Compound 275] |
| < 1 nM | < 1 nM | CN1C[C@H](Nc2cnn(C)c(=O)c2Cl)C[C@H](c2ccc(C(=O)N3CCC4(CC3)CCN(c3cc(F)c(C5CCC(=O)NC5=O)cc3F)CC4)cc2)C1 (stereo partly shown) [Compound 276] |
| < 1 nM | < 1 nM | Cc1cc(N2CCC3(CCN(C(=O)c4ccc([C@H]5C[C@@H](Nc6cnn(C)c(=O)c6Cl)CN(C)C5)cc4)CC3)CC2)cc(C)c1C1CCC(=O)NC1=O (stereo partly shown) [Compound 283] |
| < 1 nM | < 1 nM | Cc1cc(N2CCC3(CCN(C(=O)c4ccc([C@H]5C[C@@H](Nc6cnn(C)c(=O)c6Cl)CN(C)C5)cc4)CC3)CC2)cc(F)c1C1CCC(=O)NC1=O (stereo partly shown) [Compound 288] |
| < 1 nM | < 1 nM | CN1C[C@H](Nc2cnn(C)c(=O)c2Br)C[C@H](c2ccc(C(=O)N3CCC4(CC3)CCN(c3ccc5c(C6CCC(=O)NC6=O)nccc5c3)CC4)cc2)C1 (stereo partly shown) [Compound 294] |
